Patent US10570179B2, “Substituted urea depsipeptide analogs as activators of the CLPP endopeptidase” (priority 2016, dated 2020)
Numbered stars: 1 amine (or outer) side, 2 acyl side, 3 side chain; on linkers, the order of the positions; unused ones are H or OH. Bridge positions count the residues as written; N and C are the ends. Square brackets hold non-standard residues; d marks the D form. Peptide text beside a SMILES is read from it. * marks the point of attachment. Piperazine(2S-CO,4-Me) = CN1CCN[C@H](C(=O)O)C1; X6 = O=C([C@@H]1CS(=O)(=O)CCN1[*:1])[*:2]; Phe(3-Cl) = N[C@@H](Cc1cccc(Cl)c1)C(=O)O; Phe(3-Me) = Cc1cccc(C[C@H](N)C(=O)O)c1; Pro(4S-Me) = C[C@@H]1CN[C@H](C(=O)O)C1; NH(4-Cl-2-F-phenyl) = Fc1cc(Cl)ccc1N*; Pro(4R-Me) = C[C@H]1CN[C@H](C(=O)O)C1; Propanoyl(3-NMe2) = CN(C)CCC(=O)*; X1 = O=C([C@@H]1CSCCN1[*:1])[*:2]; Hyp = O=C(O)[C@@H]1C[C@@H](O)CN1; NH(4-Me-phenyl) = Cc1ccc(N*)cc1; aThr = C[C@H](O)[C@H](N)C(=O)O; Pip = O=C(O)[C@@H]1CCCCN1; 4Abz = Nc1ccc(C(=O)O)cc1; CO = O=C([*:1])[*:2]; X2 = Fc1cc(N*)ccc1Cl

Experiments:
[1] = Plasma protein binding, rapid equilibrium dialysis; format: in vitro ADME, human; conditions: 10 μM
Description: This assay determines plasma protein binding of a drug/compound and free drug concentration in plasma using rapid equilibrium dialysis, which allow the aqueous component of plasma containing the free drug/compound through a dialysis membrane (MWCO˜8,000).
Solutions were prepared at 10 mM in DMSO. Dulbecco's phosphate buffered saline (DPBS; pH 7.4) was obtained from Invitrogen (Carlsbad, Calif.). Single-Use RED (rapid equilibrium dialysis) device was obtained from Thermo scientific (Rockford, Ill.). Human plasma was obtained from Innovative Research INC (Novi, Michigan, Ill).
Sample preparation for plasma protein binding was modified from Waters' method. (Waters et al. (2008) J. Pharm. Sci. 97(10): 4586-95). The Teflon base plate with the RED inserts (MWCO 8 K) were allowed to use without any pre-condition the membrane inserts. Human plasma was thawed and centrifuged at 1000 rpm for 2 min to remove any particulates. Each compound was prepared at 10 μM in human plasma. This was done by adding 1 μL, of drug solution (10 mM in DMSO) to 1000 μL, of human plasma (0.1% DMSO). Spiked plasma solutions (300 μL) were placed into the sample chamber (indicated by the red ring) and 500 μL, of DPBS into the adjacent chamber. The plate was sealed and incubated at 37° C. on an orbital shaker (100 rpm) for 4 hours. After incubation, the seal was removed from the RED plate and the volume of the insert confirmed—little to no volume change occurred. Aliquots (50 μL) were removed from each side of the insert and dispensed into a 96-well deep plate. An equal volume of blank plasma or DPBS was added to the required wells to create analytically identical sample matrices (matrix matching). To each sample 200 μL, of ACN containing 4 μg/mL warfarin IS was added. All of the plates were sealed and mixed well at 600 rpm for 10 min and were centrifuged at 4000 rpm for 20 min. The supernatants (120 μL) were transferred to analytical plates for analysis by LCMS. Conditions for Waters ACQUITY-UPLC-MS-UV system were described separately. The test compound concentrations were quantified in both buffer and plasma chambers via peak areas relative to the internal standard. The percentage of the test compound bound to plasma was calculated on following equations: % Free=(Concentration buffer chamber/concentration plasma chamber)×100% and % Bound=100%-% Free.

[2] = Microsomal metabolic stability; format: in vitro ADME, human
Description: Compounds were initially prepared by dissolving them into DMSO at a final concentration of 10 mM. NADPH regenerating solutions A and B and mouse liver microsomes (CD-1) were obtained from BD Gentest (Woburn, Mass.). Ninety-six well deep well plates were obtained from MidWest Scientific Inc (Valley Park, Mo.).
Sample preparation for microsomal stability was modified from methods of Di, L., et al., Int J Pharm. 2005 Jun. 13; 297(1-2):110-9. A set of incubation times of 0, 15, 30, 60, 120, and 240 minutes were used. Mouse liver microsomal solutions were prepared by adding 58 μL of concentrated human or mouse liver microsomes (20 mg/mL protein concentration) to 1.756 mL of 0.1 M potassium phosphate buffer (pH 7.4) and 5 μL of 0.5 M EDTA to make a 0.6381 mg/mL (protein) microsomal solution. NADPH regenerating agent contained 113 μL of NADPH A, 23 μL of NADPH B, and 315 μL of 0.1 M potassium phosphate buffer (pH 7.4). The diluted test compound solutions (2 μL) were each added directly to a 1.79 mL of liver microsomal solution. This solution was mixed and 90 μL was transferred to 6 time points plates (each in triplicate wells). For the time 0 plate, 225 μL of cold acetonitrile with internal standard ([…] warfarin) was added to each well, followed by addition of NADPH regenerating agent (22.5 μL) and no incubation. For other five time points' plate, NADPH regenerating agent (22.5 μL) was added to each well to initiate the reaction. The plates were incubated at 37° C. for the required time, followed by quenching of the reaction by adding 225 μL of cold acetonitrile with internal standard (4 μg/ml warfarin). All of the plates were sealed and mixed well at 600 rpm for 10 minutes followed by centrifugation at 4000 rpm for 20 minutes. The supernatants (120 μL) were transferred to analytical plates for analysis by LCMS. LCMS conditions were described in the materials and instrumentation section above. The metabolic stability is evaluated via the half-life from least-squares fit of the multiple time points based on first-order kinetics.

[3] = plasma binding, % Bound, human plasma
[4] = microsomal metabolic stability half-life, human liver microsomes

SMILES	Human ([1]; human, 4 h, pH 7.4) [%]	Human ([2]; human, pH 7.4)	Human [1, 3] [%]	Human [2, 4]
C[C@@H]1C[C@H]2C(=O)O[C@@H](C)[C@H](NC(=O)[C@H](Cc3cccc(Cl)c3)NC(=O)Nc3ccc(Cl)cc3F)C(=O)N3CCC[C@H]3C(=O)N3CCN(C)C[C@H]3C(=O)N[C@@H](C)C(=O)N2C1 [Compound 33] ({NH(4-Cl-2-F-phenyl)-CO}-[Phe(3-Cl)][aThr]P[Piperazine(2S-CO,4-Me)]A[Pro(4R-Me)]; ester 2-C)	99.1 ± 9.1	9.25 ± .255 h	–	–
Cc1cccc(C[C@H](NC(=O)Nc2ccc(Cl)c(F)c2)C(=O)N[C@@H]2C(=O)N3CCC[C@H]3C(=O)N3CCCC[C@H]3C(=O)N[C@@H](C)C(=O)N3C[C@H](C)C[C@H]3C(=O)O[C@H]2C)c1 [Compound 35, (S)-2-(3-(4-CHLORO-3-FLUOROPHENYL)UREIDO)-3-(M-TOLYL)-N-((2R,6S,8AS,14AS,20S,21S,23AS)-2,6,21-TRIMETHYL-5,8,14,19,23-PENTAOXOOCTADECAHYDRO-1H,5H,14H,19H-PYRIDO[2,1-I]DIPYRROLO[2,1-C:2′,1′-L][1]OXA[4,7,10,13]TETRAAZACYCLOHEXADECIN-20-YL)PROPANAMIDE] ({X2-CO}-[Phe(3-Me)][aThr]P[Pip]A[Pro(4R-Me)]; ester 2-C)	99.9 ± 9.9	1.14 ± .145 h	–	–
CCOC(=O)c1ccc(NC(=O)N[C@@H](Cc2cccc(C)c2)C(=O)N[C@@H]2C(=O)N3C[C@H](O)C[C@H]3C(=O)N3CCCC[C@H]3C(=O)N[C@@H](C)C(=O)N3C[C@H](C)C[C@H]3C(=O)O[C@H]2C)cc1 [Compound 36, ETHYL 4-(3-((S)-1-(((2R,6S,8AS,14AS,16R,20S,21S,23AS)-16-HYDROXY-2,6,21-TRIMETHYL-5,8,14,19,23-PENTAOXOOCTADECAHYDRO-1H,5H,14H,19H-PYRIDO[2,1-I]DIPYRROLO[2,1-C:2′,1′-L][1]OXA[4,7,10,13]TETRAAZACYCLOHEXADECIN-20-YL)AMINO)-1-OXO-3-(M-TOLYL)PROPAN-2-YL)UREIDO)BENZOATE] ({OEt-4Abz-CO}-[Phe(3-Me)][aThr][Hyp][Pip]A[Pro(4R-Me)]; ester 2-C)	–	–	98.3 ± 8.3	4.81 ± .815 h
Cc1cccc(C[C@H](NC(=O)Nc2ccc(Cl)cc2F)C(=O)N[C@@H]2C(=O)N3CCC[C@H]3C(=O)N3CCS(=O)(=O)C[C@H]3C(=O)N[C@@H](C)C(=O)N3C[C@H](C)C[C@H]3C(=O)O[C@H]2C)c1 [Compound 40, (S)-2-(3-(4-CHLORO-2-FLUOROPHENYL)UREIDO)-3-(M-TOLYL)-N-((6AS,12S,13S,15AS,17R,21S,23AR)-13,17,21-TRIMETHYL-2,2-DIOXIDO-6,11,15,20,23-PENTAOXOOCTADECAHYDRO-6H,11H,15H-DIPYRROLO[2,1-C:2′,1′-L][1,4]THIAZINO[3,4-I][1]OXA[4,7,10,13]TETRAAZACYCLOHEXADECIN-12-YL)PROPANAMIDE] ({NH(4-Cl-2-F-phenyl)-CO}-[Phe(3-Me)][aThr]P[X6]A[Pro(4R-Me)]; ester 2-C)	98.5 ± 8.5	0.62 ± .623 h	–	–
Cc1cccc(C[C@H](NC(=O)Nc2ccc(Cl)cc2F)C(=O)N[C@@H]2C(=O)N3C[C@H](O)C[C@H]3C(=O)N3CCSC[C@H]3C(=O)N[C@@H](C)C(=O)N3C[C@H](C)C[C@H]3C(=O)O[C@H]2C)c1 [Compound 41, (S)-2-(3-(4-CHLORO-2-FLUOROPHENYL)UREIDO)-N-((6AS,8R,12S,13S,15AS,17R,21S,23AR)-8-HYDROXY-13,17,21-TRIMETHYL-6,11,15,20,23-PENTAOXOOCTADECAHYDRO-6H,11H,15H-DIPYRROLO[2,1-C:2′,1′-L][1,4]THIAZINO[3,4-I][1]OXA[4,7,10,13]TETRAAZACYCLOHEXADECIN-12-YL)-3-(M-TOLYL)PROPANAMIDE] ({NH(4-Cl-2-F-phenyl)-CO}-[Phe(3-Me)][aThr][Hyp][X1]A[Pro(4R-Me)]; ester 2-C)	99.7 ± 9.7	0.41 ± .413 h	–	–
Cc1ccc(NC(=O)N[C@@H](Cc2cccc(C)c2)C(=O)N[C@@H]2C(=O)N3C[C@H](O)C[C@H]3C(=O)N3CCSC[C@H]3C(=O)N[C@@H](C)C(=O)N3C[C@H](C)C[C@H]3C(=O)O[C@H]2C)cc1 [Compound 42, (S)—N-((6AS,8R,12S,13S,15AS,17R,21S,23AR)-8-HYDROXY-13,17,21-TRIMETHYL-6,11,15,20,23-PENTAOXOOCTADECAHYDRO-6H,11H,15H-DIPYRROLO[2,1-C:2′,1′-L][1,4]THIAZINO[3,4-I][1]OXA[4,7,10,13]TETRAAZACYCLOHEXADECIN-12-YL)-3-(M-TOLYL)-2-(3-(P-TOLYL)UREIDO)PROPANAMIDE] ({NH(4-Me-phenyl)-CO}-[Phe(3-Me)][aThr][Hyp][X1]A[Pro(4R-Me)]; ester 2-C)	–	–	98.1 ± 8.1	0.81 ± .813 h
Cc1ccc(NC(=O)N[C@@H](Cc2cccc(C)c2)C(=O)N[C@@H]2C(=O)N3CCC[C@H]3C(=O)N3CCCC[C@H]3C(=O)N[C@@H](C)C(=O)N3C[C@@H](C)C[C@H]3C(=O)O[C@H]2C)cc1 [Compound 45, (S)-3-(M-TOLYL)-2-(3-(P-TOLYL)UREIDO)-N-((2S,6S,8AS,14AS,20S,21S,23AS)-2,6,21-TRIMETHYL-5,8,14,19,23-PENTAOXOOCTADECAHYDRO-1H,5H,14H,19H-PYRIDO[2,1-I]DIPYRROLO[2,1-C:2′,1′-L][1]OXA[4,7,10,13]TETRAAZACYCLOHEXADECIN-20-YL)PROPANAMIDE] ({NH(4-Me-phenyl)-CO}-[Phe(3-Me)][aThr]P[Pip]A[Pro(4S-Me)]; ester 2-C)	–	–	97.3 ± 0.3	2.77 ± 0.3 h
Cc1cccc(C[C@H](NC(=O)Nc2ccc(Cl)cc2F)C(=O)N[C@@H]2C(=O)N3C[C@H](OC(=O)CCN(C)C)C[C@H]3C(=O)N3CCCC[C@H]3C(=O)N[C@@H](C)C(=O)N3C[C@H](C)C[C@H]3C(=O)O[C@H]2C)c1 [Compound 46, (2R,6S,8AS,14AS,16R,20S,21S,23AS)-20-((S)-2-(3-(4-CHLORO-2-FLUOROPHENYL)UREIDO)-3-(M-TOLYL)PROPANAMIDO)-2,6,21-TRIMETHYL-5,8,14,19,23-PENTAOXOOCTADECAHYDRO-1H,5H,14H,19H-PYRIDO[2,1-I]DIPYRROLO[2,1-C:2′,1′-L][1]OXA[4,7,10,13]TETRAAZACYCLOHEXADECIN-16-YL 3-(DIMETHYLAMINO)PROPANOATE] ({NH(4-Cl-2-F-phenyl)-CO}-[Phe(3-Me)][aThr][Hyp](Propanoyl(3-NMe2))[Pip]A[Pro(4R-Me)]; ester 2-C)	99.5 ± 0.3	2.09 ± 0.14 h	–	–
Cc1ccc(NC(=O)N[C@@H](Cc2cccc(C)c2)C(=O)N[C@H]2COC(=O)[C@@H]3CCCN3C(=O)[C@H](C)NC(=O)[C@@H]3CCCCN3C(=O)[C@@H]3C[C@@H](O)CN3C2=O)cc1 [Compound 49, (S)—N-((6S,8AS,14AS,16R,20S,23AS)-16-HYDROXY-6-METHYL-5,8,14,19,23-PENTAOXOOCTADECAHYDRO-1H,5H,14H,19H-PYRIDO[2,1-I]DIPYRROLO[2,1-C:2′,1′-L][1]OXA[4,7,10,13]TETRAAZACYCLOHEXADECIN-20-YL)-3-(M-TOLYL)-2-(3-(P-TOLYL)UREIDO)PROPANAMIDE]	–	–	98.7 ± 8.7	0.81 ± .813 h
